These results are taken from patent US12612403B2, “Nitrogen-containing heterocyclic derivative inhibitor, and preparation method therefor and use thereof” (SHANGHAI HANSOH BIOMEDICAL CO., LTD., priority 2024, dated 2026).

Experiment [1] relates to LDLR level in HepG2 cells. The experiment is described as follows: Effect on the LDLR level in HepG2 cells (ELISA). It counts as cell-based, Human. The following applies: 48 hours, LDLR in lysate by ELISA. Here is the method: 1. Experimental objective: To detect the effect of the compounds on the LDLR protein level.
2. […] A self-adhesive seal was applied, the plate was placed on a plate shaker at room temperature, gently shaken, uniformly mixed, and incubated for 2 hours. • 11) The plate was placed on the plate washer, the washing liquid was set to 350 μL per well, and the plate was washed 4 times repeatedly. • 12) 200 μL of Human LDLR conjugate was added, a self-adhesive seal was applied, and the plate was placed on the plate shaker, well mixed uniformly, and incubated for 2 hours. • 13) The plate was placed on the plate washer, the washing liquid was set to 350 μL per well, and the plate was washed 4 times repeatedly. • 14) 200 μL/well of Substrate solution was added, and the plate was placed in the dark, applied with a self-adhesive seal, placed on the plate shaker, well mixed uniformly, and incubated for 20 minutes. • 15) 50 μL/well of Stop solution was added and mixed uniformly over 20 min. • 16) The optical density (OD) value in each well was measured in sequence at a wavelength of 450 nm by the microplate reader.
3. Experimental data processing method: After the OD values were read by the microplate reader, the OD value of the 0-concentration standard in the standard group was subtracted from the OD values of the standards, control group, and samples to obtain the actual OD values for these wells. […]
For orientation: An ELISA detects its analyte on a solid surface through an enzyme-linked reagent.

Experiment [2] relates to PCSK9 secreted by HepG2 cells. The experiment is described as follows: Effect on the concentration of PCSK9 secreted by HepG2 cells (ELISA). The class given is cell-based. The following applies: Homo sapiens, 48 hours, PCSK9 in culture medium by ELISA. Summed up: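 HepG2 cells treated with compound for 48 h at 37° C., 5% CO2. Secreted PCSK9 in medium quantified by sandwich ELISA (HRP detection, OD 450 nm) against a 0–10 ng/mL standard curve. Inhibition relative to control; IC50 fitted from concentration–inhibition data.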

A further experiment concerns LDL-C. Particulars: combined with a statin; cited from earlier work.

By IC50 is commonly meant the concentration at which inhibition is half-maximal.

Each structure is given as a SMILES string.

Compound `O=C1c2ncncc2CN1c1ccc(N[C@H]2CC[C@H](Nc3nc4cc(F)ccn4n3)C2)nc1` [Example 21, 6-(6-(((1S,3S)-3-((7-fluoro-[1,2,4]triazolo[1,5-a]pyridin-2-yl)amino)cyclopentyl)amino)pyridin-3-yl)-5,6-dihydro-7H-pyrrolo[3,4-d]pyrimidin-7-one] came in with an LDLR expression level in experiment [1] of 135%. On to `O=C1c2c(cccc2C(F)(F)F)CN1c1ccc(N[C@H]2CC[C@H](Nc3nc4cc(F)ccn4n3)C2)nc1` [Example 25], for which it took 17.6 µM to reach half-maximal inhibition in experiment [2] (IC50). The LDLR expression level in experiment [1] worked out at 132%. `O=C1[C@H](CC[C@H](O)c2ccc(F)cc2)[C@@H](c2ccc(O)cc2)N1c1ccc(F)cc1` [Ezetimibe]: the “reduce LDL-C” value in the experiment on LDL-C is 15-20%.
